Source: patent publication US20250388602A1 (Genase Therapeutics B.V., priority 2022, published 2025)
Where two headings read alike, the source gives them in different places.

How the values were obtained:
MOLM-13 cells = assay: MOLM-13 cell viability (Assay B), Cell Titer-Glo; assay type: cell-based; conditions: Homo sapiens, read-out: IC50 MOLM13 inhibition activity
Protocol: MOLM-13 cells (an acute myeloid leukemia cell line) were plated in RPMI supplied with 10% FBS and 1% Pen/Strep in 384-well plates at 1,000 cells per well on day 0. On day 1, treatment of the cells with compound (concentration range 10E-5 and 6E-12 M) was initiated in the presence or absence of 100 μM uridine. After 72 hours incubation of the cells with or without test compound, the number of viable cells per well was assessed by Cell Titer-Glo Luminescent Cell Viability Assay (Promega, Madison, WI, USA). […] Each condition was tested in duplicate and the potency of test compounds was determined from two independent experiments.

recombinant human DHODH = recombinant human DHODH (Homo sapiens (Human), UniProt Q02127); assay: DHODH enzyme assay (Assay A), DCIP absorbance; assay type: biochemical
Protocol: Inhibition of human dihydroorotate dehydrogenase (DHODH) by example compounds as described herein was determined using one of two assays as described below.
DHODH enzyme assays were performed with 6 nM recombinant human DHODH (purified essentially as described by Walse et al., Biochemistry, 47, 8929-8936 (2008)). The reaction mixture consisted of 1 mM DL-dihydroorotic acid (#D7003, Sigma-Aldrich), 100 μM 3,4-dimethoxy-5-methyl-p-benzoquinone (#D9150, Sigma-Aldrich), and 100 μM 2,6-dichlorophenolindophenol sodium salt (DCIP) (#D1878, Sigma-Aldrich) in enzyme buffer (50 mM Tris-HCl pH 8.0, 0.1% Triton X-100, 150 mM KCl). A stock solution of 20 mM DCIP was prepared in enzyme buffer and filtered through Whatman paper just before use. Reactions were performed in a total volume of 100 μL, consisting of 1 μL of compound, 49 μL of enzyme and 50 μL of reaction mixture. Loss in absorbance by chromogen DCIP was measured at 595 nm following a 70 minute incubation at 32° C.

[1] = MOLM-13, 72 hours, bins ≥10 nM-<100 nM and <10 nM
[2] = bin ≥1 μM-<10 μM, read-out: IC50 DHODH inhibition activity
[3] = bins ≥10 nM-<100 nM and <10 nM, read-out: IC50 DHODH inhibition activity

Sequence of recombinant human DHODH (Q02127 whole entry): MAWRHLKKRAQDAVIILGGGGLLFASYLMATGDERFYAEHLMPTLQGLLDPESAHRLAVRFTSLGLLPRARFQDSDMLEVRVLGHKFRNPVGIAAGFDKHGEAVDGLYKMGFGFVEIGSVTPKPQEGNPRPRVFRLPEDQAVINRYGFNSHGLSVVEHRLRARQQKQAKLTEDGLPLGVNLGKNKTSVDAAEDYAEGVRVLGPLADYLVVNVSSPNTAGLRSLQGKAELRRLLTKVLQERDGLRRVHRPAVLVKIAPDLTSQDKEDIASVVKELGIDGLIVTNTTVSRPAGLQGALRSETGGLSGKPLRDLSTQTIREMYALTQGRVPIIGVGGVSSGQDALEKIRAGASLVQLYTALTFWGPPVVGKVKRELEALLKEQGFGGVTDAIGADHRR

In the case of `COc1cccc(-n2ncc3c2COC[C@H]3NC(=O)c2cc(C)c(C)cn2)c1Cl`, the IC50 (MOLM-13 cells; [1]) is reported as 10 to 100 nM.
In the case of `O=C(N[C@H]1COCc2c1cnn2-c1ccccc1F)c1ncn2c1CCCC2` (single isomer, unassigned) [Ex-2], the IC50 (recombinant human DHODH; [2]) is reported as 1000 to 10000 nM.
`O=C(N[C@H]1COCc2c1cnn2-c1ccccc1F)c1ncc2n1CCCC2` (single isomer, unassigned) [Ex-5] showed an IC50 (recombinant human DHODH; [2]) of 1000 to 10000 nM.
`O=C(N[C@H]1COCc2c1cnn2-c1c(Cl)cccc1Cl)c1ncn2c1CCCC2` (single isomer, unassigned) [Ex-12] gave an IC50 (MOLM-13 cells; [1]) of 10 to 100 nM.
In the case of `Cc1cccc(-n2ncc3c2COC[C@H]3NC(=O)c2ncn3c2CCCC3)c1Cl` [Ex-14, (S)—N-(1-(2-chloro-3-methylphenyl)-1,4,5,7-tetrahydropyrano[3,4-c]pyrazol-4-yl)-5,6,7,8-tetrahydroimidazo[1,5-a]pyridine-1-carboxamide], the IC50 (recombinant human DHODH; [3]) is reported as under 10 nM and the IC50 (MOLM-13 cells; MOLM-13, 72 h) is reported as under 10 nM.
For `CCc1c(C(=O)N[C@@H]2COCc3c2cnn3-c2cccc(C)c2Cl)ncn1C` [Ex-15, (S)—N-(1-(2-chloro-3-methylphenyl)-1,4,5,7-tetrahydropyrano[3,4-c]pyrazol-4-yl)-5-ethyl-1-methyl-1H-imidazole-4-carboxamide], the IC50 (recombinant human DHODH; [3]) was under 10 nM and the IC50 (MOLM-13 cells; [1]) was under 10 nM.
`Cc1cccc(-n2ncc3c2COC[C@H]3NC(=O)c2ncc3n2CCCC3)c1Cl` [Ex-16, (S)—N-(1-(2-chloro-3-methylphenyl)-1,4,5,7-tetrahydropyrano[3,4-c]pyrazol-4-yl)-5,6,7,8-tetrahydroimidazo[1,5-a]pyridine-3-carboxamide] gave an IC50 (recombinant human DHODH; [3]) of under 10 nM and an IC50 (MOLM-13 cells; [1]) of under 10 nM.
With `Cc1cccc(-n2ncc3c2COC[C@H]3NC(=O)c2n[nH]c3c2CCCC3)c1Cl` [Ex-17, (S)—N-(1-(2-chloro-3-methylphenyl)-1,4,5,7-tetrahydropyrano[3,4-c]pyrazol-4-yl)-4,5,6,7-tetrahydro-1H-indazole-3-carboxamide] the IC50 (recombinant human DHODH; [3]) was 10 to 100 nM and the IC50 (MOLM-13 cells; [1]) was 10 to 100 nM.
In the case of `Cc1cnc(C(=O)N[C@@H]2COCc3c2cnn3-c2c(C)cccc2Cl)cc1C` [Ex-40, (S)—N-(1-(2-chloro-6-methylphenyl)-1,4,5,7-tetrahydropyrano[3,4-c]pyrazol-4-yl)-4,5-dimethylpicolinamide], the IC50 (MOLM-13 cells; [1]) is reported as 10 to 100 nM.
In the case of `CS(=O)(=O)c1cccc(-n2ncc3c2COC[C@H]3NC(=O)c2ncn3c2CCCC3)c1` [Ex-49, (S)—N-(1-(3-(methylsulfonyl)phenyl)-1,4,5,7-tetrahydropyrano[3,4-c]pyrazol-4-yl)-5,6,7,8-tetrahydroimidazo[1,5-a]pyridine-1-carboxamide], the IC50 (recombinant human DHODH; [2]) is reported as 1000 to 10000 nM.
`CN(C)CCOc1cccc(-n2ncc3c2COC[C@H]3NC(=O)c2ncn3c2CCCC3)c1Cl` [Ex-63, (S)—N-(1-(2-chloro-3-(2-(dimethylamino)ethoxy)phenyl)-1,4,5,7-tetrahydropyrano[3,4-c]pyrazol-4-yl)-5,6,7,8-tetrahydroimidazo[1,5-a]pyridine-1-carboxamide] was tested, and the IC50 (recombinant human DHODH) was 10 to 100 nM.
For `CNC(=O)COc1cccc(-n2ncc3c2COC[C@H]3NC(=O)c2ncn3c2CCCC3)c1Cl` [Ex-65, (S)—N-(1-(2-chloro-3-(2-(methylamino)-2-oxoethoxy)phenyl)-1,4,5,7-tetrahydropyrano[3,4-c]pyrazol-4-yl)-5,6,7,8-tetrahydroimidazo[1,5-a]pyridine-1-carboxamide], the IC50 (recombinant human DHODH) was 10 to 100 nM.
Work on `CC(=O)NCCOc1cccc(-n2ncc3c2COC[C@H]3NC(=O)c2ncn3c2CCCC3)c1Cl` [Ex-66, (S)—N-(1-(3-(2-acetamidoethoxy)-2-chlorophenyl)-1,4,5,7-tetrahydropyrano[3,4-c]pyrazol-4-yl)-5,6,7,8-tetrahydroimidazo[1,5-a]pyridine-1-carboxamide] yielded an IC50 (recombinant human DHODH) of 10 to 100 nM.
Work on `CN(C)C(=O)c1cccc(-n2ncc3c2COC[C@H]3NC(=O)c2ncn3c2CCCC3)c1Cl` [Ex-70, (S)—N-(1-(2-chloro-3-(dimethylcarbamoyl)phenyl)-1,4,5,7-tetrahydropyrano[3,4-c]pyrazol-4-yl)-5,6,7,8-tetrahydroimidazo[1,5-a]pyridine-1-carboxamide] yielded an IC50 (MOLM-13 cells; MOLM-13, 72 h) of 10 to 100 nM.
